Experimental data published in patent US11464720B2, “TRPA1 activity inhibitor” (MANDOM CORPORATION, priority 2017, dated 2022).

Tests used:
human TRPA1 = biological target: T1, human TRPA1 (Homo sapiens, UniProt O75762); experiment: Test Example 1: TRPA1 activity-inhibition ratio, intracellular calcium (Fura 2-AM) in TRPA1-expressing HEK293 cells stimulated with menthol; format: cell-based; conditions: mixed with agonist 1 mM menthol
T1 construct: expressed in transfected cells; host or cells: HEK293 cells, transient lipofection of pcDNA3.1(+) human TRPA1-expression vector
Description: A cDNA encoding human TRPA1 [a polynucleotide of position 63 to position 3888 of the nucleotide sequence shown in SEQ ID NO: 1 (GenBank Accession No.: NM_007332)] was inserted into a cloning site of a vector for mammalian cells [manufactured by Invitrogen under the trade name of pcDNA3.1(+)], to obtain a human TRPA1-expression vector. One microgram of the resulting human TRPA1-expression vector was mixed with 6 μL of a gene transfer reagent [manufactured by Invitrogen under the trade name of PLUS Reagent, Catalogue No.: 11514-015], to obtain a mixture I. Additionally, 4 μL of a cationic lipid for gene transfer [manufactured by Invitrogen under the trade name of Lipofectamine (registered trademark), Catalogue No.: 18324-012] was mixed with 200 μL of a medium for reducing serum consumption [Manufactured by Invitrogen under the trade name of Opti-MEM (registered trademark) I Reduced Serum Medium (catalogue No.: 11058021)], to obtain a mixture II.
Furthermore, 5×10^5 cells of HEK293 cells were cultured in a 10% by mass fetal bovine serum (FBS)-containing Dulbecco's modified Eagle's medium (DMEM) on a dish having a diameter of 35 mm maintained at 37° C. under 5% by volume carbon dioxide atmosphere to 70% confluence.
By adding the mixture I and the mixture II to the resulting cell culture, the human TRPA1-expression vector was introduced into HEK293 cells, to obtain TRPA1-expressing cells. […]
Thereafter, intensity of fluorescence A based on the Fura 2-AM introduced into the TRPA1-expressing cell and bound to a calcium ion in the cells at an excitation wavelength of 340 nm in the chamber and intensity of fluorescence B based on the Fura 2-AM introduced into the TRAP1-expressing cell at an excitation wavelength of 380 nm were measured.
Using the measured intensity of fluorescence A and B, Δfluorescence intensity ratioagonist was calculated. The Δfluorescence intensity ratioagonist was calculated on the basis of the formula (IV): [Formula 1] ΔFluorescence intensity ratioagonist=(Fluorescence intensity340 nm in the presence of an agonist/Fluorescence intensity 380 nm in the presence of an agonist)−(Fluorescence intensity340 nm in the presence of a control/Fluorescence intensity380 nm in the presence of a control) (IV).
In the formula (IV), the intensity of fluorescence A was used as fluorescence intensity340 nm, and the intensity of fluorescence B was used as fluorescence intensity380 nm. […]

human TRPM8 = biological target: T2, human TRPM8 (Homo sapiens, UniProt Q7Z2W7); experiment: Test Example 2: enhancement degree of TRPM8 activity, intracellular calcium (Fura 2-AM) in TRPM8-expressing HEK293 cells; format: cell-based; conditions: test sample 0.5 mM, ratio to TRPM8 activity enhanced by agonist 1 mM menthol, FIG. 2
T2 construct: expressed in transfected cells; host or cells: HEK293 cells, transient lipofection of pcDNA3.1(+) human TRPM8-expression vector
Description: A cDNA encoding human TRPM8 [a polynucleotide of position 41 to position 3355 of the nucleotide sequence shown in SEQ ID NO: 3 (GenBank Accession No.: NM_024080)] was inserted into a cloning site of a vector for mammalian cells [manufactured by Invitrogen under the trade name of pcDNA3.1(+)], to obtain a human TRPM8-expression vector. One microgram of the resulting human TRPM8-expression vector was mixed with 6 μL of a gene transfer reagent [manufactured by Invitrogen under the trade name of PLUS Reagent, Catalogue No.: 11514-015], to obtain a mixture III. […]
Thereafter, intensity of fluorescence E based on the Fura 2-AM introduced into the TRPM8-expressing cell and bound to a calcium ion in the cells at an excitation wavelength of 340 nm and intensity of fluorescence F based on the Fura 2-AM introduced into the TRAM8-expressing cell at an excitation wavelength of 380 nm were measured in the chamber.
Using the measured intensity of fluorescence E and F, Δfluorescence intensity ratiotest sample was calculated on the basis of the formula (V). In the formula (V), the intensity of fluorescence E was used as fluorescence intensity340 nm, and the intensity of fluorescence F was used as fluorescence intensity380 nm. […]

[1] = test sample 1 mM in solvent A, FIG. 1

T1 sequence (O75762 whole entry): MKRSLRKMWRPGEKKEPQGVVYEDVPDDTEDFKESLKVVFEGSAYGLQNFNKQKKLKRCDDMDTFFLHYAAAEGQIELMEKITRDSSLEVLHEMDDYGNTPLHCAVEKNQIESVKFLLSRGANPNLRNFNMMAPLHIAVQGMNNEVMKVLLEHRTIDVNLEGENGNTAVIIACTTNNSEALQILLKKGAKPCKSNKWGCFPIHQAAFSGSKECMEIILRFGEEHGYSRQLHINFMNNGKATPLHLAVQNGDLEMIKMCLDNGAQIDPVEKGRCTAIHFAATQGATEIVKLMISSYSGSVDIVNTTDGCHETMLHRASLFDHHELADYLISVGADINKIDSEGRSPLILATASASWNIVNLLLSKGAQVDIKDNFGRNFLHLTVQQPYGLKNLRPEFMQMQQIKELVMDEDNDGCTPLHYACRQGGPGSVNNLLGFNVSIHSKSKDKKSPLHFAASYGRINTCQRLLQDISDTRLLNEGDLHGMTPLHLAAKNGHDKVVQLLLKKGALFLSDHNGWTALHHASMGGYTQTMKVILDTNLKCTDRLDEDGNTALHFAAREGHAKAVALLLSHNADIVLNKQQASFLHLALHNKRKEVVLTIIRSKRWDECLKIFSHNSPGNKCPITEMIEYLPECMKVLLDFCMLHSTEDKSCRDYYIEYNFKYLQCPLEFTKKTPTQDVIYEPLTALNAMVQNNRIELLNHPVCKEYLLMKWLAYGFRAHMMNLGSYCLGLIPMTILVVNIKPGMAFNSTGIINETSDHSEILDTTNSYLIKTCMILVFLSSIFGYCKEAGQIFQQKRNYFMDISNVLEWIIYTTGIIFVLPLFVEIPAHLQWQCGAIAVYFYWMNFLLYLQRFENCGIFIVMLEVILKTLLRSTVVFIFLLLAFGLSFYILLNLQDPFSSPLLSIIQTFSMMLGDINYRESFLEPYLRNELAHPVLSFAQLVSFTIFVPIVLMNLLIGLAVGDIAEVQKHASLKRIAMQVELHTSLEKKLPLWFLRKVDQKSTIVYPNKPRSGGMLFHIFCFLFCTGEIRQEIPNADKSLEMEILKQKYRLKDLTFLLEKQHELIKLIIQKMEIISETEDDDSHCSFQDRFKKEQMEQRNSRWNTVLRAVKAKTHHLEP
T2 sequence (Q7Z2W7 whole entry): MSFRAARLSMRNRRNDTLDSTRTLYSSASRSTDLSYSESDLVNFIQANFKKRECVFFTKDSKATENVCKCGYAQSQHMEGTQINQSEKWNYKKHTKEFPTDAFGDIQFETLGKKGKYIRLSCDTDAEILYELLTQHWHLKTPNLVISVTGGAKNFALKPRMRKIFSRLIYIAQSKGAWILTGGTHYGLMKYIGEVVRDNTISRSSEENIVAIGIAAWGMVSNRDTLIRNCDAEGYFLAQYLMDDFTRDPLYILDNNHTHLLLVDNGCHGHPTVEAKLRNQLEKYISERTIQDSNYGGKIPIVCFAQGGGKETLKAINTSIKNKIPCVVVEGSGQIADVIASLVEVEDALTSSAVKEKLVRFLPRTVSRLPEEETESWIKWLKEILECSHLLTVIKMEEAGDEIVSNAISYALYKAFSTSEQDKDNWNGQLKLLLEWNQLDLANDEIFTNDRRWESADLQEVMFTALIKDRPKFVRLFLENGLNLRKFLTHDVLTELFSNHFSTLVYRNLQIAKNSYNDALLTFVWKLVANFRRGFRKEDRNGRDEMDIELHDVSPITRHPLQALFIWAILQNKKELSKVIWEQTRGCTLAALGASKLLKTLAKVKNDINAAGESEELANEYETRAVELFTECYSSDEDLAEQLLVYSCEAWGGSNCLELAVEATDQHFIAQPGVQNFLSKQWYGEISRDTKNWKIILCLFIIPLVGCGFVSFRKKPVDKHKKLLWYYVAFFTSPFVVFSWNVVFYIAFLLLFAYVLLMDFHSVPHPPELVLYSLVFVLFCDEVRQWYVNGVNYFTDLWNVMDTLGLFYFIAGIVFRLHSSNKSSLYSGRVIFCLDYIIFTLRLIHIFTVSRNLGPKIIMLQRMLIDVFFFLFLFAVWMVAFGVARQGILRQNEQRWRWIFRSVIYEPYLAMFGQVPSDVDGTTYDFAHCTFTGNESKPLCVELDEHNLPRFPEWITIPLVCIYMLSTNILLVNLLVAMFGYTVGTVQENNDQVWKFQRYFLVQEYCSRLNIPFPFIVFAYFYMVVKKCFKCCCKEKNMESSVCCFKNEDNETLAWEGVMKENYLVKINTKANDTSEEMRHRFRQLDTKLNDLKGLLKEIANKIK

Q: For `OCC(O)CO` [Comparative Example 1, Glycerol], which TRPA1 activity-inhibition ratio (human TRPA1; test sample 5 mM glycerol in solvent A, FIG. 1 lane 4) is on record?
A: ≤ 0%

Q: How did the TRPA1 activity-inhibition ratio (human TRPA1; [1]) turn out when `CC1(C)C2CCC1(C)C(OCCO)C2` (stereo not drawn) [Example 1, 2-isobornyloxyethanol] was run?
A: about 99%

Q: And the “Enhancement degree of TRPM8 activity” value (human TRPM8)?
A: about 0.69

Q: For `CC1(C)C2CCC1(C)C(O)C2` (stereo not drawn) [Reference Example 1, Borneol], which TRPA1 activity-inhibition ratio (human TRPA1; [1]) is on record?
A: about 96%

Q: And the “Enhancement degree of TRPM8 activity” value (human TRPM8)?
A: about 0.35

Q: Which TRPA1 activity-inhibition ratio (human TRPA1; [1]) does the source give for `CC12CCC(CC1)C(C)(C)O2` [Reference Example 2, 1,8-cineole] here?
A: about 71%
